{
  "source": "patent US6127136A",
  "about": "“Detection of dioxin-like compounds by detection of transformed Ah receptor/ARNT complex” (Paracelsian, Inc., priority 1996, dated 2000)",
  "key": {"[1]": {"target": "T1, transformed Ah receptor/ARNT complex (Cavia porcellus, UniProt Q6J287)", "assay": "mini-Ah immunoassay with anti-ARNT detection of transformed Ah receptor/ARNT complex", "assay_type": "biochemical, guinea pig (male Hartley, hepatic cytosol)", "parameters": "AHR/ARNT heterodimer on DRE gel, anti-ARNT detection; in some samples recombinant baculovirus ARNT (Bradfield) added", "settings": "for density, average / density: TCDD (+); for density: single replicate", "description": "Male Hartley guinea pigs weighing 300-350 g were obtained from Cornell Research Animal Resources, Cornell University, Ithaca, N.Y. Guinea pigs were anaesthetized and killed with carbon dioxide. Livers were perfused in situ with 100 mL ice-cold perfusion buffer, excised, trimmed of connective tissue, poorly perfused liver and gall bladder and weighed. The liver was minced and five mL of ice-cold HEDG per gram liver were added and the whole homogenized in a 50 mL homogenizer with teflon pestle using at 200 rpm for a total of seven strokes. Crude homogenate was centrifuged at 12,500 RPM in 50 mL tubes in a JA17 rotor in a Beckman J2-MI preparative centifuge at 4 degrees C for 20 minutes.\nFor a typical mini-Ah immunoassay utilizing 12 samples, 5 mL of Transformed Ah Receptor Affinity Gel slurry described above was pipeted into a 50 mL conical tube. The slurry was washed with 40 mL HEDG and centifuged at 1000 g for 5 min, the supernatant withdrawn and discarded, the pellet washed with 40 mL HEDG, and centrifuged again. After the second centrifugation all but 5 mL of supernatant was withdrawn and the gel thus resuspended in the original volume. 10 mL guinea pig hepatic cytosol was thawed. The thawed cytosol was pooled and then divided into two 5 mL groups and treated with either 5 uL DMSO or 5 uL 10 uM TCDD in DMSO.\nAssembly of transformation mixture:In the preferred embodiment of the mini-Ah immunoassay, each sample was composed of one 1.5 mL microfuge tube with the following sequential additions: 90 uL 4 M NaCl/HEDG, 400 uL Transformed Ah Receptor Affinity Gel slurry and 800 uL cytosol (treated with DMSO or TCDD as described above). The three components described above are the minimum components added at that step of the mini-Ah immunoassay. Any additional materials, such as ARNT, anti-ARNT and anti-Rabbit/alkaline phosphatase conjugate, were sometimes also added at this time as described in the specific examples. After assembly of the samples, the tubes were capped and the samples incubated at room temperature for 2 hours with gentle rocking to allow transformation of the Ah receptor to take place, interaction of transformed Ah receptor and ARNT, and binding of the transformed Ah receptor as a heteromer to the DRE oligonucleotide contained on the Transformed Ah Receptor Affinity Gel.\nImmunoprobing of transformed Ah receptor: The nitrocellulose membrane was then removed from the ELIFA apparatus, rinsed briefly with water, and placed in 20 mL blocker containing test antibody. All antibodies were incubated with the nitrocellulose membrane for one hour at room temperature. When the test antibody was anti-Ah receptor/alkaine phosphatase conjugate, 100 uL anti-Ah receptor/alkaline phosphatase conjugate (1:200), per 20 mL blocker was used. When anti-ARNT was added to the transformation mixture, anti-Rabbit/alkaline phosphatase conjugate (Sigma, St. Louis, Mo.) diluted 1:1000 (20 uL to 20 mL blocker) was used to probe the membrane. When ARNT, anti-ARNT and anti-Rabbit or anti-ARNT and anti-Rabbit was added to the transformation mixture, the Immunoprobing step was eliminated.\nImmunodetection and densitometry: In all cases the nitrocellulose membrane was rinsed prior to immunodetection 3 times for 5 min each with 100 mL TBST, briefly washed in AP development buffer and developed in freshly made BCIP/NBT developer for 5 min, whereupon the color reaction was stopped by washing the membrane in water.\nQuantitative data were obtained by scanning the dried membrane in a Microtek 600ZS scanner in gray scale, 300 dpi, 0% brightness, 0% contrast. Densitometric measurements of the dot-blots were made using ScanAnalysis software (Biosoft, Cambridge U.K.).\nCytosol and DRE affinity gel are prepared as described above. Cytosol is dosed with 1:1000 v/v DMSO (-) or 1:1000 v/v 10 uM 2,3,7,8-tetrachlorodibenzo-p-dioxin in DMSO (+).\nImmunoprobing of transformed Ah receptor is as described above with the following probes. […]"}, "[2]": {"target": "T1, transformed Ah receptor/ARNT complex", "assay": "Ah-ELISA, cytosol volume, time and temperature optimization", "assay_type": "biochemical, guinea pig (hepatic cytosol)", "parameters": "from tissue; host or cells: hepatic cytosol of male Hartley guinea pigs (animals from Cornell Research Animal Resources)", "description": "The reagents and ELISA plate were prepared as described in Example 8. The volume of cytosol, temperature of cytosol incubation and time of incubation were all varied independently. The test volume of cytosol was varied between 50 and 200 μl at 50 μl increments. […] The assay was with a cytosol incubation varying between 30 and 120 minutes at 30 minute increments."}, "[3]": {"target": "T1, transformed Ah receptor/ARNT complex", "assay": "Ah-ELISA dose response using PnPP detection", "assay_type": "biochemical, guinea pig (hepatic cytosol)", "parameters": "from tissue; host or cells: hepatic cytosol of male Hartley guinea pigs (animals from Cornell Research Animal Resources)", "settings": "for Average Optical Density: 405 nm, PnPP 58 minutes", "description": "The reagents and ELISA plate were prepared as described in Example 9 with the standard PNPP detection technique. The TCDD concentration was varied tested at 0, 0.016, 0.031, 0.063, 0.125, 0.25, 0.5, and 1.0 nM. After washing the plates PnPP stock was added to each well (200 uL) and the plate was incubated for 1 hour (actually 58 minutes for data shown below), at which time it was read at 405 nm in an ELISA plate reader and milli O.D. recorded."}, "[4]": {"settings": "Example 3, 220 ng anti-ARNT spike"}, "[5]": {"settings": "Example 3, 660 ng anti-ARNT spike"}, "[6]": {"settings": "Example 4, ARNT/anti-ARNT/anti-rabbit"}, "[7]": {"settings": "Example 4, anti-ARNT/anti-rabbit, no ARNT added"}, "[8]": {"settings": "Example 4, codes 1-4 (ARNT 2 ug, anti-ARNT 2 uL)"}},
  "note": "Values joined by “and” are separate entries in the source; they are usually repeats but may differ in a detail not shown here. Identical values can stand only once.",
  "data": [
    {"smiles": "Clc1cc2c(cc1Cl)Oc1cc(Cl)c(Cl)cc1O2", "note": "[TCDD, 2,3,7,8-tetrachlorodibenzo-p-dioxin]", "values": [
      {"measurement": "density, difference TCDD treated (+) minus DMSO treated (-)", "setting": "[1]; [4]", "result": 185901},
      {"measurement": "density, average", "setting": "[1]; Example 3, 220 ng anti-ARNT spike, average of two replicates", "result": 205498},
      {"measurement": "density", "setting": "[1]; [4]", "result": "191233 and 219762"},
      {"measurement": "density, difference TCDD treated (+) minus DMSO treated (-)", "setting": "[1]; [5]", "result": 189840},
      {"measurement": "density, average", "setting": "[1]; Example 3, 660 ng anti-ARNT spike, average of two replicates", "result": 261285},
      {"measurement": "density", "setting": "[1]; [5]", "result": "231412 and 291157"},
      {"measurement": "density, difference", "setting": "[1]; [6]", "result": 76074},
      {"measurement": "density", "setting": "[1]; Example 4, ARNT/anti-ARNT/anti-rabbit in mixture", "result": "85215 and 80175"},
      {"measurement": "density, average", "setting": "[1]; [6]", "result": 82695},
      {"measurement": "density, difference", "setting": "[1]; [7]", "result": 33501},
      {"measurement": "density", "setting": "[1]; [7]", "result": 36309},
      {"measurement": "density, average", "setting": "[1]; Example 4, anti-ARNT/anti-rabbit, no ARNT added, second replicate lost", "result": 36309},
      {"measurement": "density, difference", "setting": "[1]; [8]", "result": 235535},
      {"measurement": "density, average", "setting": "[1]; [8]", "result": 244132},
      {"measurement": "density", "setting": "[1]; Example 4, codes 1-4 (ARNT 2 ug, anti-ARNT 2 uL; printed Normal)", "result": "233321 and 254942"},
      {"measurement": "ave(+)-BG", "setting": "[2]; 50 uL, 120 min, 30 C", "result": 1006},
      {"measurement": "difference", "setting": "[2]; 50 uL, 120 min, 30 C", "result": 984},
      {"measurement": "ave(+)-BG", "setting": "[2]; 100 uL, 120 min, 30 C", "result": 1463},
      {"measurement": "difference", "setting": "[2]; 100 uL, 120 min, 30 C", "result": 1430},
      {"measurement": "ave(+)-BG", "setting": "[2]; 150 uL, 120 min, 30 C", "result": 1910},
      {"measurement": "difference", "setting": "[2]; 150 uL, 120 min, 30 C", "result": 1867},
      {"measurement": "ave(+)-BG", "setting": "[2]; 200 uL, 30 min, 30 C", "result": 394},
      {"measurement": "difference", "setting": "[2]; 200 uL, 30 min, 30 C", "result": 359},
      {"measurement": "ave(+)-BG", "setting": "[2]; 200 uL, 30 min, 38 C", "result": 525},
      {"measurement": "difference", "setting": "[2]; 200 uL, 30 min, 38 C", "result": 497},
      {"measurement": "ave(+)-BG", "setting": "[2]; 200 uL, 60 min, 30 C", "result": 1324},
      {"measurement": "difference", "setting": "[2]; 200 uL, 60 min, 30 C", "result": 1288},
      {"measurement": "ave(+)-BG", "setting": "[2]; 200 uL, 90 min, 30 C", "result": 1882},
      {"measurement": "difference", "setting": "[2]; 200 uL, 90 min, 30 C", "result": 1839},
      {"measurement": "ave(+)-BG", "setting": "[2]; 200 uL, 120 min, 22 C", "result": 1924},
      {"measurement": "difference", "setting": "[2]; 200 uL, 120 min, 22 C", "result": 1863},
      {"measurement": "ave(+)-BG", "setting": "[2]; 200 uL, 120 min, 30 C", "result": 2369},
      {"measurement": "difference", "setting": "[2]; 200 uL, 120 min, 30 C", "result": 2324},
      {"measurement": "ave(+)-BG", "setting": "[2]; 200 uL, 120 min, 35 C", "result": 959},
      {"measurement": "difference", "setting": "[2]; 200 uL, 120 min, 35 C", "result": 898},
      {"measurement": "Average Optical Density", "setting": "[3]; 0.016 nM TCDD", "result": 0.3},
      {"measurement": "Average Optical Density", "setting": "[3]; 0.031 nM TCDD", "result": 0.338},
      {"measurement": "Average Optical Density", "setting": "[3]; 0.063 nM TCDD", "result": 0.4},
      {"measurement": "Average Optical Density", "setting": "[3]; 0.125 nM TCDD", "result": 0.527},
      {"measurement": "Average Optical Density", "setting": "[3]; 0.25 nM TCDD", "result": 0.804},
      {"measurement": "Average Optical Density", "setting": "[3]; 0.5 nM TCDD", "result": 1.409},
      {"measurement": "Average Optical Density", "setting": "[3]; 1 nM TCDD", "result": 2.155},
      {"measurement": "EC50", "setting": "[3]; PnPP detection, FIG. 6", "result": "~0.248", "unit": "nM"}
    ]}
  ]
}
